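How tested: cells in 96-well plates exposed to compound for 48 hours at five concentrations. At the GI50, growth is halved. At the TGI there is no net growth.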
Legend:
Test in all cases: growth of human tumour cells (NCI), 48 h
COLO 205 colon = system: COLO 205 colon
SK-MEL-28 melanoma = system: SK-MEL-28 melanoma
UO-31 renal = system: UO-31 renal
OVCAR-3 ovarian = system: OVCAR-3 ovarian
SK-MEL-5 melanoma = system: SK-MEL-5 melanoma
HT29 colon = system: HT29 colon
HCC-2998 colon = system: HCC-2998 colon
MCF7 breast = system: MCF7 breast
MDA-MB-231 breast = system: MDA-MB-231 breast
UACC-257 melanoma = system: UACC-257 melanoma
NCI-H522 lung = system: NCI-H522 lung
SR leukemia = system: SR leukemia
M14 melanoma = system: M14 melanoma
SNB-19 CNS = system: SNB-19 CNS
IGROV1 ovarian = system: IGROV1 ovarian
SF-539 CNS = system: SF-539 CNS
RXF 393 renal = system: RXF 393 renal
SNB-75 CNS = system: SNB-75 CNS
MOLT-4 leukemia = system: MOLT-4 leukemia
PC-3 prostate = system: PC-3 prostate
ACHN renal = system: ACHN renal
DU-145 prostate = system: DU-145 prostate
HCT-116 colon = system: HCT-116 colon
CCRF-CEM leukemia = system: CCRF-CEM leukemia
A498 renal = system: A498 renal
KM12 colon = system: KM12 colon
TK-10 renal = system: TK-10 renal
CAKI-1 renal = system: CAKI-1 renal
SF-268 CNS = system: SF-268 CNS
A549 NSCLC = system: A549 NSCLC
SK-MEL-2 melanoma = system: SK-MEL-2 melanoma
HOP-62 NSCLC = system: HOP-62 NSCLC
HS 578T breast = system: HS 578T breast
T-47D breast = system: T-47D breast
MDA-MB-435 = system: MDA-MB-435
NCI-H23 lung = system: NCI-H23 lung
SF-295 CNS = system: SF-295 CNS
HL-60(TB) leukemia = system: HL-60(TB) leukemia
BT-549 breast = system: BT-549 breast
NCI/ADR-RES ovarian = system: NCI/ADR-RES ovarian
HCT-15 colon = system: HCT-15 colon
NCI-H460 lung = system: NCI-H460 lung
OVCAR-4 ovarian = system: OVCAR-4 ovarian
K-562 leukemia = system: K-562 leukemia
RPMI-8226 leukemia = system: RPMI-8226 leukemia
UACC-62 melanoma = system: UACC-62 melanoma
OVCAR-5 ovarian = system: OVCAR-5 ovarian
SN12C renal = system: SN12C renal
U251 CNS = system: U251 CNS
SK-OV-3 ovarian = system: SK-OV-3 ovarian
786-0 renal = system: 786-0 renal
SW-620 colon = system: SW-620 colon
NCI-H226 lung = system: NCI-H226 lung
MALME-3M melanoma = system: MALME-3M melanoma
OVCAR-8 ovarian = system: OVCAR-8 ovarian
HOP-92 NSCLC = system: HOP-92 NSCLC
LOX IMVI melanoma = system: LOX IMVI melanoma

In the case of CC(C)C[C@H](NC(=O)CCn1ccc2ncccc2c1=O)B(O)O, the GI50 (COLO 205 colon) was 10.3 µM, the TGI (COLO 205 colon) was > 100 µM and the GI50 (SK-MEL-28 melanoma) was 6.8 µM. For the same compound, the TGI (SK-MEL-28 melanoma) was > 76.7 µM, the GI50 (UO-31 renal) was 19.6 µM and the TGI (UO-31 renal) was > 100 µM. It also gave a GI50 (OVCAR-3 ovarian) of 4.1 µM, a TGI (OVCAR-3 ovarian) of 20.6 µM and a GI50 (SK-MEL-5 melanoma) of 3.97 µM. For the same compound, the TGI (SK-MEL-5 melanoma) was 19.2 µM, the GI50 (HT29 colon) was 6.28 µM and the TGI (HT29 colon) was > 100 µM. The GI50 (HCC-2998 colon) was 12.9 µM, the TGI (HCC-2998 colon) was 30.2 µM and the GI50 (MCF7 breast) was 3.88 µM. For the same compound, the TGI (MCF7 breast) was > 100 µM, the GI50 (MDA-MB-231 breast) was 9.73 µM and the TGI (MDA-MB-231 breast) was 46.6 µM. For the same compound, the GI50 (UACC-257 melanoma) was 8.25 µM, the TGI (UACC-257 melanoma) was 44.1 µM and the GI50 (NCI-H522 lung) was 4.26 µM. For the same compound, the TGI (NCI-H522 lung) was 25 µM, the GI50 (SR leukemia) was 3.08 µM and the TGI (SR leukemia) was > 100 µM. The GI50 (M14 melanoma) was 5.45 µM, the TGI (M14 melanoma) was > 47.3 µM and the GI50 (SNB-19 CNS) was 32.6 µM. The TGI (SNB-19 CNS) was > 100 µM, the GI50 (IGROV1 ovarian) was 36.5 µM and the TGI (IGROV1 ovarian) was > 94.3 µM. For the same compound, the GI50 (SF-539 CNS) was 2960 nM, the TGI (SF-539 CNS) was 9.03 µM and the GI50 (RXF 393 renal) was 3.54 µM. For the same compound, the TGI (RXF 393 renal) was 15.2 µM, the GI50 (SNB-75 CNS) was 14.5 µM and the TGI (SNB-75 CNS) was 47.5 µM. For the same compound, the GI50 (MOLT-4 leukemia) was 2900 nM, the TGI (MOLT-4 leukemia) was > 28.7 µM and the GI50 (PC-3 prostate) was 35.2 µM. The TGI (PC-3 prostate) was > 100 µM, the GI50 (ACHN renal) was 9.45 µM and the TGI (ACHN renal) was > 100 µM. For the same compound, the GI50 (DU-145 prostate) was 19.6 µM, the TGI (DU-145 prostate) was > 100 µM and the GI50 (HCT-116 colon) was 3.64 µM. For the same compound, the TGI (HCT-116 colon) was 19 µM, the GI50 (CCRF-CEM leukemia) was 308 nM and the TGI (CCRF-CEM leukemia) was > 26.5 µM. For the same compound, the GI50 (A498 renal) was 2660 nM, the TGI (A498 renal) was 21.3 µM and the GI50 (KM12 colon) was 14.6 µM. It also gave a TGI (KM12 colon) of 37.7 µM, a GI50 (TK-10 renal) of 6.44 µM and a TGI (TK-10 renal) of 61.8 µM. The GI50 (CAKI-1 renal) was 21.6 µM, the TGI (CAKI-1 renal) was > 100 µM and the GI50 (SF-268 CNS) was 12.6 µM. The TGI (SF-268 CNS) was > 61.2 µM, the GI50 (A549 NSCLC) was 36.1 µM and the TGI (A549 NSCLC) was > 100 µM. The GI50 (SK-MEL-2 melanoma) was 11 µM, the TGI (SK-MEL-2 melanoma) was > 79.2 µM and the GI50 (HOP-62 NSCLC) was 21.7 µM. For the same compound, the TGI (HOP-62 NSCLC) was > 79 µM, the GI50 (HS 578T breast) was 13.2 µM and the TGI (HS 578T breast) was > 71.7 µM. The GI50 (T-47D breast) was 5.31 µM, the TGI (T-47D breast) was > 55 µM and the GI50 (MDA-MB-435) was 2600 nM. For the same compound, the TGI (MDA-MB-435) was 8.86 µM, the GI50 (NCI-H23 lung) was 14.9 µM and the TGI (NCI-H23 lung) was > 100 µM. For the same compound, the GI50 (SF-295 CNS) was 11.5 µM, the TGI (SF-295 CNS) was 43.9 µM and the GI50 (HL-60(TB) leukemia) was 6.88 µM. The TGI (HL-60(TB) leukemia) was > 100 µM, the GI50 (BT-549 breast) was 4.86 µM and the TGI (BT-549 breast) was 23.1 µM. For the same compound, the GI50 (NCI/ADR-RES ovarian) was > 100 µM, the TGI (NCI/ADR-RES ovarian) was > 100 µM and the GI50 (HCT-15 colon) was 28.1 µM. The TGI (HCT-15 colon) was > 100 µM, the GI50 (NCI-H460 lung) was 31.9 µM and the TGI (NCI-H460 lung) was > 100 µM. For the same compound, the GI50 (OVCAR-4 ovarian) was 24.9 µM, the TGI (OVCAR-4 ovarian) was > 100 µM and the GI50 (K-562 leukemia) was 13.2 µM. The TGI (K-562 leukemia) was > 100 µM, the GI50 (RPMI-8226 leukemia) was 2820 nM and the TGI (RPMI-8226 leukemia) was > 27 µM. It also gave a GI50 (UACC-62 melanoma) of 5.93 µM, a TGI (UACC-62 melanoma) of 61.7 µM and a GI50 (OVCAR-5 ovarian) of 23.2 µM. For the same compound, the TGI (OVCAR-5 ovarian) was > 100 µM, the GI50 (SN12C renal) was 18.9 µM and the TGI (SN12C renal) was > 100 µM. For the same compound, the GI50 (U251 CNS) was 24.9 µM, the TGI (U251 CNS) was > 100 µM and the GI50 (SK-OV-3 ovarian) was > 66 µM. The TGI (SK-OV-3 ovarian) was > 100 µM, the GI50 (786-0 renal) was 14 µM and the TGI (786-0 renal) was > 100 µM. For the same compound, the GI50 (SW-620 colon) was 4.23 µM, the TGI (SW-620 colon) was > 45.9 µM and the GI50 (NCI-H226 lung) was 2220 nM. It also gave a TGI (NCI-H226 lung) of 6.13 µM, a GI50 (MALME-3M melanoma) of 5.2 µM and a TGI (MALME-3M melanoma) of 48.9 µM. For the same compound, the GI50 (OVCAR-8 ovarian) was 27.4 µM, the TGI (OVCAR-8 ovarian) was > 100 µM and the GI50 (HOP-92 NSCLC) was 14.5 µM. It also gave a TGI (HOP-92 NSCLC) of 60.3 µM, a GI50 (LOX IMVI melanoma) of 4.53 µM and a TGI (LOX IMVI melanoma) of 18.7 µM.
